Measurements as given in patent publication US8470776B2, “Conjugates of disorazoles and their derivatives with cell-binding molecules, novel disorazole derivatives, processes of manufacturing and uses thereof” (Aeterna Zentaris GmbH, priority 2006, dated 2013).
≈ marks a conversion by molar mass, not a printed value.

Columns and labels:
[1] = system: human glioblastoma cell line SF-268; assay: cells; type: cell-based; conditions: for IC50 SF-268: XTT, 45 h incubation
Text: (§1) Selected compounds of the invention were investigated for their antiproliferative activity in a proliferation test on established tumor cell lines.
(§2) The test used determines the cellular dehydrogenase activity and makes possible a determination of the cell vitality and indirectly the cell count.
(§3) The cell lines used are the human cervical carcinoma cell line KB/HeLa (ATCC CCL17), the ovarian adenocarcinoma cell line SKOV-3 (ATCC HTB77), the human glioblastoma cell line SF-268 (NCI-503138) and the lung carcinoma cell line NCI-H460 (NCI-503473). In addition, for the investigation of the cell cycle-specific action of the compounds of the invention, an RKOp27 cell system was used (Schmidt M et al. Oncogene 2000, 19(20): 2423-2429). RKO is a human colon carcinoma cell line (ATCC CRL-2577), in which the cell cycle inhibitor p27^kip1 induced by means of the ecdysone expression system is expressed and can be led to a cell cycle arrest specifically in […]. A nonspecifically acting substance inhibits the proliferation independently of whether the RKO cell is or is not arrested in G1 or G2. Cell cycle-specific substances such as, for example, tubulin inhibitors are, however, only cytotoxic if cells are not arrested and the cell cycle is passed through.
(§4) The adherently growing tumor cell lines KB/HeLa, SKOV-3, SF-268 and NCI-H460 were cultured under standard conditions in an incubator at 37° C., 5% CO2 and 95% atmospheric humidity. On experimental day 1, the cells are detached using trypsin/EDTA and pelleted by centrifugation. Subsequently, the cell pellet is resuspended in the respective culture medium at the corresponding cell count and reacted in a 96-well microtiter plate. The plates are then cultured overnight in the incubator. The test substances are prepared as 1 mg/ml stock solutions in DMSO and diluted to the appropriate concentrations on experimental day 2 using culture medium. The substances in culture medium are then added to the cells and incubated in the incubator for 45 h. As a control, cells which are not treated with test substance are used. For the XTT assay, 1 mg/ml of XTT (sodium 3′-[1-(phenylaminocarbonyl)-3,4-tetrazolium]-bis(4-methoxy-6-nitro)benzenesulfonic acid) is dissolved in RPMI-1640 medium without Phenol Red. Additionally, a 0.383 mg/ml PMS (N-methyldibenzopyrazine methylsulfate) solution in phosphate-buffered saline solution (PBS) is prepared. On experimental day 4, 75 μl/well of XTT-PMS mixture is pipetted onto the cell plates which in the meantime have been incubated with the test substances for 45 h. For this, shortly before use, the XTT solution is mixed with the PMS solution in the ratio 50:1 (vol:vol). The cell plates are then incubated in the incubator for a further 3 h and the optical density (OD490 nm) is determined in a photometer. By means of the OD490 nm determined, the percentage inhibition is calculated relative to the control and plotted semilogarithmically in the form of a concentration-action curve. The IC50 is calculated by means of a regression analysis from the concentration-action curve using the program Graphpad Prism.

[2] = system: human cervical carcinoma cell line KB/HeLa; assay: cells; type: cell-based; conditions: for IC50 KB/HELA: XTT, 45 h incubation
Text: as §1, §2, §3, §4

[3] = system: lung carcinoma cell line NCI-H460; assay: cells; type: cell-based, human; conditions: for IC50 NCI-H460: XTT, 45 h incubation
Text: as §1, §2, §3, §4

[4] = system: ovarian adenocarcinoma cell line SKOV-3; assay: cells; type: cell-based, human; conditions: for IC50 SKOV-3: XTT, 45 h incubation
Text: as §1, §2, §3, §4

[5] = system: GnRH receptor positive, human ovarian carcinoma cell line OVCAR-3; assay: OVCAR-3 tumors in nude mice, single i.v. dose; type: in vivo, CD 1 nu/nu nude mice; conditions: for Average tumor size day 18: once on day 0, tail vein; for Average tumor size day 0: tail vein, day 0 (baseline before dosing)
Procedure: 30 CD 1 nu/nu nude mice were inoculated subcutaneously with the GnRH receptor positive, human ovarian carcinoma cell line OVCAR-3 (5 million cells per animal). The experiment was started after formation of solid tumors. 5 animals per dose group were used.
On day 0 of the experiment, the individual tumor volume was determined by palpation and set to 100%. Test compounds were administered subsequently on day 0 of the experiment by injection into the tail vein of the test animals.
A standard volume of 10 ml of 0.9% saline per kg (200 μl per 20 g mouse) containing the test compound in the required concentration was administered once only on day 0 of the experiment.
The tumor size was determined again by palpation on day 18 of the experiment.
In the case of appearance of additional tumors, the volumes were added.

[6] = system: RKOp27 cells (human colon carcinoma cell line RKO), p27kip1 induced; assay: cells; type: cell-based; conditions: for IC50 RKOp27 induced: p27kip1 induced with 3 μM muristerone A, XTT, 45 h
Text: as §3, §4
(§5) The assay is carried out in 96-well plates. […] By comparison of the activity on induced and noninduced cells, conclusions on the mechanism of action (cell cycle specificity) of the therapeutics can be drawn. […] cells are inoculated in approximately three-fold higher cell count, since division no longer takes place during the assay in comparison with uninduced cells (20000 cells/well induced, 6250 cells/well not induced). The controls are untreated cells (+/−induction). The induction is carried out with 3 μM muristerone A. On the 1st day, the cells are exposed (+/−muristerone A) and incubated at 37° C. for 24 h. On day 2, the test substance is added (control DMSO) and incubation is continued at 37° C. for a further 45 h before a standard XTT assay is carried out.

[7] = system: RKOp27 cells (human colon carcinoma cell line RKO), p27kip1 not induced; assay: cells; type: cell-based; conditions: for IC50 RKOp27: without expression of p27kip1, XTT, 45 h
Text: as §3, §4, §5

[8] = system: mammalian cells; conditions: Elnakady et al. 2004; cited from earlier work
[9] = system: cell models; conditions: reported in literature; cited from earlier work
[10] = system: hGnRH-R negative cell line LTK−; assay: GnRH-receptor dependent proliferation assay, LTK-; type: cell-based; conditions: 30 min exposure, vital cells vs untreated control = 100%
Procedure: (§6) The dose-dependent receptor-mediated inhibition of cell proliferation of selected compounds of the invention was investigated.
(§7) To study these effects a human GnRH receptor (hGnRH-R) positive cell line (5C6; Beckers et al., Eur. J. Biochem. 1995, 231: 535-543) and an hGnRH-R negative cell line (LTK^−; ECACC No. 85011432) was used.
(§8) Respective cells were exposed to 1 mL culture medium in 24 well multi-titer-plates (MTPs) with a cell number of 15000 cells per well. The cell number is adjusted in such a way that after 5 days of testing the untreated control cells are still in the exponential growth phase.
(§9) Test compounds are given to the cultured cells after 4 hours of initial growth (adherence) in a volume of 100 μL to yield the final concentrations given in table 2.
(§10) After 30 min of incubation at 37° C. the entire culture medium is sucked off and the cells are washed twice with culture medium without test compounds. After the washing the cells are placed into an incubator (at 37° C., 5% CO2 and 95% atmospheric humidity) and incubated for further 4 days.
(§11) For the determination of the cell number after incubation the cells are detached using trypsin/EDTA and centrifuged. The number of vital cells and the total cell number are counted using a Vi-Cell Analyzer (Beckman Coulter).
(§12) The number of vital cells is analyzed in comparison with untreated control cells (=100%). Only cell groups (respective wells) are considered of which the total cell viability is more than 90%, i.e. inhibition of cell proliferation by unspecific toxicity can be excluded.
(§13) The proliferation status of untreated control cells after 96 hours is set to 100%.

[11] = system: human GnRH receptor (hGnRH-R) positive cell line 5C6; assay: GnRH-receptor dependent proliferation assay, 5C6; type: cell-based; conditions: 30 min exposure, vital cells vs untreated control = 100%
Procedure: as §6, §7, §8, §9, §10, §11, §12, §13

[12] = system: various human tumor cell lines; conditions: nano- and picomolar concentrations; WO 2004/024149; cited from earlier work
[13] = system: paclitaxel- and vindesine-resistant cell lines; conditions: WO 2004/024149; cited from earlier work

C/C=C/C(O)C(C)(C(=O)OC)C1C\C=C/C=C/C=C/c2nc(co2)C(=O)OC(C(C)(C(=O)OC)C(O)/C=C/C)C\C=C/C=C/C=C/c2nc(co2)C(=O)O1 (centres unmarked) [disorazol Z, disorazole Z, reference compound]
IC50 ([1]; Homo sapiens, SF-268, 45 h, read-out: IC50 SF-268): 1.28 ng/mL (≈ 1.72 nM) | IC50 ([2]; Homo sapiens, HeLa, 45 h, read-out: IC50 KB/HELA): 1.01 ng/mL (≈ 1.35 nM) | IC50 ([3]; Homo sapiens, NCI-H460, 45 h, read-out: IC50 NCI-H460): 0.67 ng/mL (≈ 0.897 nM) | IC50 ([4]; Homo sapiens, SK-OV-3, 45 h, read-out: IC50 SKOV-3): 0.504 ng/mL (≈ 0.675 nM) | Average tumor size day 18 ([5]; 0.16 mg/kg = 215 nmol/kg, day 18): 146 | Average tumor size day 0 ([5]; 0.16 mg/kg = 215 nmol/kg): 92 | suppression of tumor growth (in words) ([5]; OVCAR-3 tumors, single i.v. dose, day 18): moderate suppression of tumor growth | IC50 ([6]; Homo sapiens, RKOp27, 45 h, read-out: IC50 RKOp27 induced): > 3160 ng/mL | IC50 ([7]; Homo sapiens, RKOp27, 45 h, read-out: IC50 RKOp27): 0.659 ng/mL (≈ 0.882 nM)

C/C=C/[C@H](O)C(C)(C)[C@@H]1C\C=C/C=C\C=C\[C@H](OC)Cc2nc(co2)C(=O)O[C@H](C(C)(C)[C@@H](O)/C=C/C)C/C=C\[C@H]2O[C@H]2/C=C/C=C\c2nc(co2)C(=O)O1 [disorazol A1, disorazole A1, reference compound]
IC50 SF-268 [1]: 0.125 ng/mL (≈ 0.165 nM) | IC50 KB/HELA [2]: 0.049 ng/mL (≈ 0.0646 nM) | induction of apoptosis in mammalian cells [8]: induces apoptosis | IC50 NCI-H460 [3]: 0.022 ng/mL (≈ 0.029 nM) | IC50 SKOV-3 [4]: 0.027 ng/mL (≈ 0.0356 nM) | IC50 RKOp27 induced [6]: >3160 ng/mL | IC50 RKOp27 [7]: 0.049 ng/mL (≈ 0.0646 nM) | antiproliferative action in cell models [9]: possesses an antiproliferative action

C/C=C/C(O)C(C)(C(=O)OC)C1C\C=C/C=C/C=C/c2nc(co2)C(=O)OC(C(C)(C(=O)OC)C(/C=C/C)OC(=O)CCC(=O)NCCCC[C@H](NC(=O)[C@H](Cc2ccc(O)cc2)NC(=O)[C@H](CO)NC(=O)[C@H](Cc2c[nH]c3ccccc23)NC(=O)[C@H](Cc2cnc[nH]2)NC(=O)[C@@H]2CCC(=O)N2)C(=O)N[C@@H](CC(C)C)C(=O)N[C@@H](CCCNC(=N)N)C(=O)N2CCC[C@H]2C(=O)NCC(N)=O)C\C=C/C=C/C=C/c2nc(co2)C(=O)O1 (stereo partly drawn) [compound 16, Disorazole Z Mono Hemi Succinyl [D-Lys^6]LHRH]
proliferation status after 96 hours, cell line LTK−, 0.1 nM ([10]; 0.1 nM): 101.8% | proliferation status after 96 hours, cell line LTK−, 1 nM ([10]; 1 nM): 105.8% | proliferation status after 96 hours, cell line LTK−, 10 nM ([10]; 10 nM): 103.4% | proliferation status after 96 hours, cell line LTK−, 100 nM ([10]; 100 nM): 61.7% | IC50 SF-268 [1]: 17.8 ng/mL (≈ 8.55 nM) | IC50 KB/HELA [2]: 18.92 ng/mL (≈ 9.09 nM) | IC50 NCI-H460 [3]: 9.235 ng/mL (≈ 4.43 nM) | IC50 SKOV-3 [4]: 7.683 ng/mL (≈ 3.69 nM) | Average tumor size day 18 ([5]; 0.1 mg/kg = 43 nmol/kg, day 18): 76 | Average tumor size day 0 ([5]; 0.1 mg/kg = 43 nmol/kg): 79 | Average tumor size day 18 ([5]; 0.5 mg/kg = 215 nmol/kg, day 18): 40 | Average tumor size day 0 ([5]; 0.5 mg/kg = 215 nmol/kg): 74 | IC50 RKOp27 induced [6]: >3160 ng/mL | IC50 RKOp27 [7]: 5.18 ng/mL (≈ 2.49 nM) | proliferation status after 96 hours, cell line 5C6, 0.1 nM ([11]; 0.1 nM): 83.8% | proliferation status after 96 hours, cell line 5C6, 1 nM ([11]; 1 nM): 80.9% | proliferation status after 96 hours, cell line 5C6, 10 nM ([11]; 10 nM): 54.1% | proliferation status after 96 hours, cell line 5C6, 100 nM ([11]; 100 nM): 21.9%

C/C=C/C(O)C(C)(C)C1C/C=C\C2OC2C=CC(OC)Cc2nc(co2)C(=O)OC(C(C)(C)C(O)/C=C/C)C/C=C\C2OC2/C=C\C=Cc2nc(co2)C(=O)O1 (centres unmarked) [disorazol E1, disorazole E1, reference compound]
cytotoxic action on various human tumor cell lines [12]: possess cytotoxic action | IC50 SF-268 [1]: 0.474 ng/mL (≈ 0.612 nM) | IC50 KB/HELA [2]: 0.17 ng/mL (≈ 0.219 nM) | activity against paclitaxel- and vindesine-resistant cell lines [13]: active | IC50 NCI-H460 [3]: 0.065 ng/mL (≈ 0.0839 nM) | IC50 SKOV-3 [4]: 0.074 ng/mL (≈ 0.0955 nM) | IC50 RKOp27 induced [6]: >3160 ng/mL | IC50 RKOp27 [7]: 0.17 ng/mL (≈ 0.219 nM)

disorazole D1
cytotoxic action on various human tumor cell lines [12]: possess cytotoxic action
